# Results: the supplement of paper PMC10307832
# Key:
# Experiment in all cases: relative viability (nuclei count vs DMSO), 5 days (fraction); higher = more cells survive
# [1] = compound: CN(C)C[C@@H]1CCn2cc(c3ccccc32)C2=C(C(=O)NC2=O)c2cn(c3ccccc23)CCO1 [Ruboxistaurin] + CC(C)C[C@H](NC(=O)[C@H](Cc1ccccc1)NC(=O)c1cnccn1)B(O)O [Bortezomib] (partner 0.002 µM)
# How it was run: (§1)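 Relative viability equals treated-well nuclei counts divided by vehicle-well nuclei counts. Counts came from 4× images of lung cancer cell lines grown in 1536-well plates for 5 days after pin-tool dosing on the day after seeding. Dosing used one drug alone or a fixed anchor-drug dose plus five library-drug doses (not always all listed) in √10 steps, and values are medians of duplicate plates.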
# [2] = compound: CN(C)C[C@@H]1CCn2cc(c3ccccc32)C2=C(C(=O)NC2=O)c2cn(c3ccccc23)CCO1 [Ruboxistaurin] + C[C@]1(O)C[C@@H](c2nc(-c3ccc4ccc(-c5ccccc5)nc4c3)c3c(N)nccn32)C1 [Linsitinib] (partner 1 µM)
# How it was run: as §1
# [3] = compound: CN(C)C[C@@H]1CCn2cc(c3ccccc32)C2=C(C(=O)NC2=O)c2cn(c3ccccc23)CCO1 [Ruboxistaurin] + Cc1cc(Nc2cc(N3CCN(C)CC3)nc(Sc3ccc(NC(=O)C4CC4)cc3)n2)n[nH]1 [Tozasertib] (partner 0.1 µM)
# How it was run: as §1
# [4] = compound: CN(C)C[C@@H]1CCn2cc(c3ccccc32)C2=C(C(=O)NC2=O)c2cn(c3ccccc23)CCO1 [Ruboxistaurin] + N=C(N)NC(=N)NCCc1ccccc1 [Phenformin] (partner 250 µM)
# How it was run: as §1
# [5] = compound: CN(C)C[C@@H]1CCn2cc(c3ccccc32)C2=C(C(=O)NC2=O)c2cn(c3ccccc23)CCO1 [Ruboxistaurin] + Nc1nc2[nH]cc(CCc3ccc(C(=O)N[C@@H](CCC(=O)O)C(=O)O)cc3)c2c(=O)[nH]1 [Pemetrexed] (partner 0.2 µM)
# How it was run: as §1
Cell Line,relative viability ([1]; first compound 0.08 µM),relative viability ([1]; first compound 0.8 µM),relative viability ([1]; first compound 2.53 µM),relative viability ([1]; first compound 8 µM),relative viability ([2]; first compound 0.08 µM),relative viability ([2]; first compound 0.8 µM),relative viability ([2]; first compound 2.53 µM),relative viability ([2]; first compound 8 µM),relative viability ([3]; first compound 0.08 µM),relative viability ([3]; first compound 0.8 µM),relative viability ([3]; first compound 2.53 µM),relative viability ([3]; first compound 8 µM),relative viability ([4]; first compound 0.08 µM),relative viability ([4]; first compound 0.8 µM),relative viability ([4]; first compound 2.53 µM),relative viability ([4]; first compound 8 µM),relative viability ([5]; first compound 0.08 µM),relative viability ([5]; first compound 0.8 µM),relative viability ([5]; first compound 2.53 µM),relative viability ([5]; first compound 8 µM)
EMC-BAC-2,1.1,0.99,1.04,0.962,0.885,0.775,0.773,0.739,0.29,0.254,0.272,0.17,0.601,0.469,0.505,0.438,0.419,0.415,0.384,0.383
NCI-H661,0.887,0.664,0.883,0.88,0.809,0.538,0.718,0.545,0.366,0.332,0.372,0.344,0.253,0.268,0.297,0.29,0.932,0.873,0.921,0.874
LU99A,1.19,1.06,1.11,0.968,0.614,0.455,0.463,0.33,0.256,0.205,0.221,0.229,0.759,0.625,0.872,0.787,0.159,0.179,0.171,0.203
LK-2,,,,,0.493,0.589,0.717,0.261,0.174,0.152,0.179,0.162,0.476,0.38,0.379,0.225,0.266,0.346,0.309,0.242
NCI-H3122,1.07,0.953,1.01,1.1,1.03,0.978,1.03,1.01,0.426,0.43,0.426,0.334,0.409,0.372,0.413,0.379,0.191,0.201,0.191,0.187
NCI-H2347,1.25,1.11,0.957,1.02,0.943,0.902,0.92,0.984,0.557,0.468,0.614,0.415,0.557,0.382,0.488,0.367,0.45,0.413,0.372,0.44
NCI-H1563,0.871,0.763,0.933,0.775,1.34,1.14,1.37,1.16,,,,,0.67,0.654,0.702,0.693,0.831,0.724,0.987,0.656
HCC-827,1.01,1.01,1.06,1.14,0.933,0.962,0.951,1,0.43,0.393,0.423,0.423,0.454,0.397,0.427,0.384,0.265,0.252,0.268,0.28
NCI-H1666,0.857,0.751,0.806,0.733,0.951,0.691,0.964,0.565,0.653,0.571,0.582,0.503,0.598,0.533,0.583,0.584,0.85,0.825,0.747,0.808
NCI-H358,,,,,0.835,0.59,0.63,0.367,0.116,0.0986,0.118,0.0882,0.32,0.255,0.293,0.263,0.171,0.175,0.177,0.162
201T,1.12,1.08,1.12,1.15,1.03,0.874,1.06,0.891,0.993,0.815,0.976,0.825,0.49,0.433,0.449,0.426,0.31,0.327,0.311,0.31
PC-3 [JPC-3],0.855,0.804,0.793,0.85,0.974,0.91,0.915,1,0.91,0.852,0.852,0.841,0.471,0.47,0.492,0.517,1.22,1.09,1.17,1.04
NCI-H2405,1.01,1.01,1,0.94,1.01,0.866,1.01,0.902,0.764,0.613,0.726,0.722,0.427,0.391,0.414,0.38,1.13,1.04,1.11,1.01
LXF-289,1.03,0.941,0.976,1.06,0.925,0.951,0.966,1.05,0.216,0.157,0.195,0.209,0.514,0.509,0.488,0.594,0.884,0.91,0.906,1.02
EKVX,1.15,0.998,1.18,0.946,1.08,0.948,0.971,0.931,0.411,0.401,0.415,0.367,0.249,0.221,0.234,0.26,0.413,0.401,0.373,0.393
A-427,1.01,0.952,0.97,0.731,1.1,1.08,0.992,0.925,0.19,0.184,0.232,0.157,0.398,0.314,0.327,0.273,0.994,0.926,0.958,0.923
IA-LM,0.891,0.669,1.1,0.98,0.734,0.277,0.6,0.685,,,,,,,,,,,,
ChaGo-K-1,1.27,1.06,1.05,0.939,,,,,0.225,0.242,0.231,0.211,0.47,0.525,0.532,0.412,0.272,0.247,0.26,0.267

Cell Line,relative viability ([1]; first compound 0.08 µM),relative viability ([1]; first compound 0.8 µM),relative viability ([1]; first compound 2.53 µM),relative viability ([1]; first compound 8 µM),relative viability ([2]; first compound 0.08 µM),relative viability ([2]; first compound 0.8 µM),relative viability ([2]; first compound 2.53 µM),relative viability ([2]; first compound 8 µM),relative viability ([3]; first compound 0.08 µM),relative viability ([3]; first compound 0.8 µM),relative viability ([3]; first compound 2.53 µM),relative viability ([3]; first compound 8 µM),relative viability ([4]; first compound 0.08 µM),relative viability ([4]; first compound 0.8 µM),relative viability ([4]; first compound 2.53 µM),relative viability ([4]; first compound 8 µM),relative viability ([5]; first compound 0.08 µM),relative viability ([5]; first compound 0.8 µM),relative viability ([5]; first compound 2.53 µM),relative viability ([5]; first compound 8 µM)
NCI-H2342,,,,,,,,,0.578,0.56,0.461,0.497,0.626,0.585,0.616,0.597,0.793,0.825,0.874,0.817
SK-MES-1,,,,,1.08,1,1.02,0.996,0.948,0.808,0.887,0.789,0.678,0.607,0.658,0.639,0.997,0.899,1.01,0.863
LCLC-97TM1,0.845,0.487,0.58,0.685,0.169,,0.166,0.151,0.194,0.168,0.242,0.159,0.466,0.383,0.475,0.466,0.193,0.172,0.198,0.16
NCI-H2170,,,,,,,,,0.719,0.737,0.686,0.745,0.443,0.429,0.458,0.474,0.274,0.263,0.248,0.303
NCI-H1993,1.3,0.925,1.01,0.83,0.63,0.695,0.62,0.703,0.574,0.541,0.568,0.538,0.529,0.518,0.525,0.568,0.482,0.565,0.633,0.577
NCI-H460,1.1,1.03,0.916,0.824,0.919,0.6,0.855,0.349,0.411,0.257,0.405,0.29,0.535,0.497,0.533,0.485,0.0661,0.0571,0.0621,0.0636
NCI-H1975,0.392,0.311,0.424,0.392,1.07,0.916,0.938,0.769,0.851,0.54,0.384,0.189,0.431,0.392,0.414,0.418,0.328,0.276,0.301,0.286
RERF-LC-KJ,1.09,0.992,1.1,0.937,0.877,0.857,0.932,0.956,0.515,0.401,0.49,0.462,0.458,0.426,0.443,0.406,0.48,0.46,0.483,0.446
ABC-1,0.357,0.339,0.308,0.261,0.767,0.865,0.969,0.625,0.178,0.163,0.184,0.22,0.252,0.245,0.182,0.233,,,,
NCI-H1792,0.995,0.928,0.915,1.03,0.536,0.449,0.506,0.487,,,,,0.32,,0.247,0.243,0.845,0.659,0.749,0.584
NCI-H727,0.974,0.85,0.986,0.69,0.312,0.288,0.296,0.267,0.69,0.463,0.579,0.536,0.565,,0.401,0.474,,,,
NCI-H1944,,,,,1.23,1.1,1.12,1.01,0.249,0.206,0.239,0.237,0.213,0.183,0.179,0.186,0.6,0.55,0.667,0.659
NCI-H1703,0.401,0.319,0.382,0.237,0.756,0.464,0.957,0.82,,,,,,,,,,,,
NCI-H1650,0.216,0.192,0.212,0.195,,,,,0.435,0.301,0.433,0.3,0.542,0.387,0.4,0.287,0.425,0.362,0.373,0.454
NCI-H1395,,,,,1.22,1.02,1.26,1.08,0.774,0.709,0.79,0.7,0.502,0.415,0.525,0.498,1.04,0.768,0.917,0.782
NCI-H1793,,,,,1.07,0.818,0.985,1.14,0.346,0.242,0.408,0.301,0.412,0.321,0.422,0.408,1.13,,1.03,0.876
NCI-H522,,,,,,,,,0.502,0.502,0.563,0.524,0.675,0.605,0.703,0.622,1.06,0.791,1.18,1.02
SW 900,,,,,,,,,0.647,0.499,0.656,0.452,0.71,0.597,0.564,0.55,0.479,0.421,0.489,0.491
